Here are results for 1 compound from patent US12246010B2, “Formulations of tegavivint and related compounds” (Iterion Therapeutics, Inc., priority 2018, dated 2025).

Series [1] concerns bleomycin-induced idiopathic pulmonary fibrosis (IPF). Description: Bleomycin-induced IPF mouse model: body weight. The series is classed as in vivo, C57BL/6 male mice. The method, then: (§1) The purpose of this experiment was to investigate tegavivint nanosuspension in a mouse model of bleomycin-induced idiopathic pulmonary fibrosis (IPF). Test articles were as follows:
Tegavivint (BC2059) in a nano-milled suspension 25 mg/mL in 0.625% poloxamer 188 and 10% sorbitol. The test article was refrigerated at about 4° C.
Nebulizing equipment was Altera ultrasonic eRapid machine nebulizer (model #678G1002).
Animals were 8-12 week old C57BL/6 male mice (Jackson Lab, Bar Harbor, ME).
(§2) Murine model of pulmonary fibrosis was induced by intratracheally (IT) injected bleomycin (APP Pharmaceuticals, Schaumburg, IL). One dose of 0.025 U bleomycin dissolved in 50 microliters of Saline 0.9%, or PBS as control was administered to each animal on day 0.
(§3) Tegavivint nanosuspension was applied to Group 3 in the form of aerosols, through the method of whole body exposure. The mice were placed inside a plastic box. This box was sealed and connected by one of its sides to the outlet of the nebulizer device, and on the other side to a system of closed water. The whole procedure was carried out inside the fume hood of the animal room. In each treatment session, 5 ml of 25 mg/ml Tegavivint (125 mg) was nebulized over 15 min to each group of 4-5 mice in the chamber. […]
The body weight of animals was recorded on Days 0, 5, 8, 12, 16, 19, and 21.

Series [2] shares this test system. Description: Bleomycin-induced IPF mouse model: lung mechanics (FlexiVent compliance). The series is classed as in vivo, C57BL/6 male mice. The method, then: as §1, §2
as §3, with “chamber. To increase exposure of the mice to the aerosol, Tegavivint that precipitated in the aerosol chamber was collected with a syringe and re-nebulized a second and a third time. Mice were nebulized twice a day between day 5 and day 21 after administration of bleomycin. Group 1 and 2 received nebulized vehicle 5 ml in the same manner.” for “chamber.”

The nature of series [3]: Lung concentration after nebulized whole body exposure of mice. The following applies: for concentration at 5 day: male, bcat-Ex3, mouse, lung, inhaled. It is filed as in vivo, bcat-Ex3 mice. The procedure:
The purpose of this experiment was to test nebulized delivery of nanosuspensions.
Tegavivint particles suspended in Poloxamer 188/sorbitol at a concentration of 25 mg/mL were used.
These formulations were applied to the mice in the form of aerosols, through the method of whole body exposure. The mice were placed inside a plastic box. This box was sealed and connected by one of its sides to the outlet of the nebulizer device, and on the other side to a system of closed water. The whole procedure was carried out inside the fume hood of the animal room.
For the first experiment, the nebulizer kit of SATER LABS was used. This device uses the jet system. The device was primed with 5 ml of the drug, i.e. 125 mg of tegavivint (BC2059), for each group of 5 mice, and then the device was connected to the power source for nebulization. The energy was supplied by a DeVilbiss compressor model 646, which allows 5-7 pounds of pressure, and a flow of 6-8 liters per minute. For the second experiment, the device used was the Altera, ultrasonic nebulizer.
For the two experiments, 10 male bcat-Ex3 mice were used for each set. These mice were separated into 2 groups of 5 mice each. The first group received the drug daily, for 5 consecutive days. The second group received the drug only once (the fifth day). On day 5 all mice were sacrificed, lung harvested, and samples were stored at −30 degrees, in two labeled nylon bags, each containing the 5 samples from each group.

The nature of series [4]: Aerosol particle size distribution by cascade impactor. The series is classed as physicochemical. The following applies: Covaris and Ball Mill (60 min); 0.1% Tween 80; 15.06 mg/mL; Hospitak. The procedure:
Particle size distribution (PSD) of the test article was measured at the breathing zone using an In Tox, mercer style cascade impactor.
Particle size for test atmospheres was measured using an In-Tox Cascade impactor for suspensions prepared with 0.1% Tween 80 in ultrapure water, and the sponsor provided poloxamer suspension using a compressed air nebulizer.

The nature of series [5]: Tegavivint solubility in water and organic solvents. The series is classed as physicochemical. The procedure: In organic solvents, tegavivint has solubilities as shown: DMSO (334 μg/mL), ethanol (260 μg/mL), methanol (299 μg/mL), acetone (1 mcg/mL), dichloromethane:ethanol (1:4) (1 mg/mL).
The next series deals with red blood cells. Kind of series: Hemolysis of red blood cells. It is filed as cell-based. The following applies: in the nanoparticle form or when dissolved in DMSO. The source says: It was hypothesized that the tween/ethanol/PEG/Vitamin E/Intralipid solvent-based excipients and probable drug precipitation were responsible for the infusion reactions and not tegavivint itself.

Where [6] appears, read: mouse lung, Nebulizer (ultrasonic eRapid, Altera), 5 daily doses on Days 1-5.

Values after ≈ are worked out from the molar mass of the structure shown. Values joined by “and” are separate entries in the source; they are usually repeats but may differ in a detail not shown here. Identical values can stand only once. Like-named read-outs stand apart in the source and are kept apart here.

One may read the solubility as the concentration that dissolves in the medium under given conditions. For `C[C@@H]1C[C@H](C)CN(S(=O)(=O)c2ccc3c(c2)C(=NO)c2cc(S(=O)(=O)N4C[C@H](C)C[C@H](C)C4)ccc2C3=NO)C1` [BC2059, tegavivint], the “effect on body weight loss caused by bleomycin” value in series [1] (Group 3, inhaled) was “reversed the body weight loss”. Also, in series [1] (Group 3: IT bleomycin Day 0, 5 ml of 25 mg/ml tegavivint aerosol BID Day 5-21, individual animals), the “Change in body weight (%)” value is −2.83% and 5.2% and 7.3% (2×) and 7.9%. In series [2] (Group 3, inhaled), the “effect on lung compliance after bleomycin injury” value is on record as “reversed the compliance values to near those of the sham-treated controls”. Moreover, in series [2] (Group 3: IT bleomycin Day 0, 5 ml of 25 mg/ml tegavivint aerosol BID Day 5-21, Day 21, individual animals), the Compliance is 0.05515 ml/cm H2O and 0.05604 ml/cm H2O and 0.06762 ml/cm H2O and 0.0543 ml/cm H2O and 0.0561 ml/cm H2O. In addition, the concentration at 5 day turned out to be 19100 ng/g in series [3] (Nebulizer (ultrasonic eRapid, Altera), 5 daily doses on Days 1-5, read-out: Lung Concentration (ng/g)) and 4770 ng/mL in series [3] (Nebulizer (ultrasonic eRapid, Altera), 5 daily doses on Days 1-5, read-out: Lung Concentration (ng/mL)). The “lung tissue concentration in the previous testing (assayed concentration)” value in series [3] (mouse lung, previous nebulization testing) is on record as roughly 0.02 mg/g. Further, the “Lung Concentration (ng/g)” value in series [3] (setting [6]) was 17200 ng/g and 18800 ng/g and 12200 ng/g and 22900 ng/g. Besides, in series [3] (setting [6]), the “Lung Concentration (ng/mL)” value is 4290 ng/mL and 4690 ng/mL and 3040 ng/mL and 5730 ng/mL. In series [4], this compound gave a GSD of 2.21. This compound had an MMAD in series [4] of 1.26 µm. Also, the solubility in series [5] (DMSO, organic solvent or mixture, read-out: solubility in DMSO) is 334 µg/mL (≈ 567 µM); in series [5] (acetone, organic solvent or mixture, read-out: solubility in acetone) it was 1 µg/mL (≈ 1.7 µM); in series [5] (dichloromethane:ethanol (1:4), organic solvent or mixture, read-out: solubility in dichloromethane:ethanol (1:4)), 1000 µg/mL (≈ 1700 µM); in series [5] (ethanol, organic solvent or mixture, read-out: solubility in ethanol), 260 µg/mL (≈ 442 µM); in series [5] (methanol, organic solvent or mixture, read-out: solubility in methanol) it was 299 µg/mL (≈ 508 µM); in series [5] (water, aqueous buffer, across the pH range of 2 to 10, read-out: solubility in water), less than 0.25 µg/mL. Also, the “hemolysis of red blood cells” value with red blood cells is given as “does not cause hemolysis”.
